Here are results for 16 compounds from ChEMBL document CHEMBL1201862, “PubChem BioAssay data set” (2004).

For test [1], the target named is T1, Cytochrome P450 2C9 (Homo sapiens, UniProt P11712).
Test [2] deals with T1, Cytochrome P450 2C9. As to conditions: Potency.
Test [3] addresses T2, Cytochrome P450 3A4 (Homo sapiens, UniProt P08684).
The next test concerns the target Cytochrome P450 2D6 (Homo sapiens, UniProt P10635). As to the kind of experiment: qHTS Assay for Inhibitors and Substrates of Cytochrome P450 2D6. [Related pubchem assays: 410 ]. Particulars: read-out: Potency. In kind it is ADME.
The nature of test [4]: HEp-2 cell cytotoxicity, dose response, cytotoxicity control for RSV inhibitor project, HTS (AID 2410). Type of test: functional. As to conditions: human respiratory syncytial virus.
The target in test [5] is G-protein coupled receptor 55 (Homo sapiens, UniProt Q9Y2T6). As to the kind of experiment: GPR55 agonists via beta-arrestin recruitment, primary screen, imaging, U2OS cells, beta-arrestin-GFP redistribution (AID 1961). In kind it is functional.
Sequence of G-protein coupled receptor 55 (Q9Y2T6 whole entry): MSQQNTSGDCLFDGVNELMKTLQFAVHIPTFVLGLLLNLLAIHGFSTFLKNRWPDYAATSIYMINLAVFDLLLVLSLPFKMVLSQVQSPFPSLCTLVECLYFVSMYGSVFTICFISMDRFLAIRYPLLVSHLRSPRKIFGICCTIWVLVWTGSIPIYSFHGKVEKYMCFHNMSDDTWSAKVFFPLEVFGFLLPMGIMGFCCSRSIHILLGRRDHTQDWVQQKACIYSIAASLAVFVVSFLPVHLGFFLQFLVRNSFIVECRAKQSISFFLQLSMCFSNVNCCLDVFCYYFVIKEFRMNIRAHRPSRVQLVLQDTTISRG
Test [6] addresses Peroxisome proliferator-activated receptor gamma/Nuclear receptor coactivator 2 (Homo sapiens, UniProt P37231). In kind it is functional.
The target of test [7] is Peroxisome proliferator-activated receptor gamma/Nuclear receptor coactivator 3 (Homo sapiens, UniProt P37231). In kind it is functional.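 Note: agonist potency for raising coactivator recruitment to the receptor.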
Sequence of Peroxisome proliferator-activated receptor gamma/Nuclear receptor coactivator 3 (P37231 whole entry): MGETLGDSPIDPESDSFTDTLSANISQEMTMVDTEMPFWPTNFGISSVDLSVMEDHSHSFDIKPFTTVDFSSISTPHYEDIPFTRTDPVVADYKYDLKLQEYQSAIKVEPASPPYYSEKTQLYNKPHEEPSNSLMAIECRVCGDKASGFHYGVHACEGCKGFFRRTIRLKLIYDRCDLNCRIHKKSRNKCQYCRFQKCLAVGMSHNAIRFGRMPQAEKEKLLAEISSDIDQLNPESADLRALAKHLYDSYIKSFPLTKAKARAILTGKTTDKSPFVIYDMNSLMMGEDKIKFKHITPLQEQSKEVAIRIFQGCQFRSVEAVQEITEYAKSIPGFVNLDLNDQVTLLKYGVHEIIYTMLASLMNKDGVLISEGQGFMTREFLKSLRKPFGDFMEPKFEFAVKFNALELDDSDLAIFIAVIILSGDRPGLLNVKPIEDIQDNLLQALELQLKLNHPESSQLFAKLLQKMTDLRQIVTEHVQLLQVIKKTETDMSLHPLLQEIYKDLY
Sequence of Peroxisome proliferator-activated receptor gamma/Nuclear receptor coactivator 3 (Q9Y6Q9 whole entry, further chain): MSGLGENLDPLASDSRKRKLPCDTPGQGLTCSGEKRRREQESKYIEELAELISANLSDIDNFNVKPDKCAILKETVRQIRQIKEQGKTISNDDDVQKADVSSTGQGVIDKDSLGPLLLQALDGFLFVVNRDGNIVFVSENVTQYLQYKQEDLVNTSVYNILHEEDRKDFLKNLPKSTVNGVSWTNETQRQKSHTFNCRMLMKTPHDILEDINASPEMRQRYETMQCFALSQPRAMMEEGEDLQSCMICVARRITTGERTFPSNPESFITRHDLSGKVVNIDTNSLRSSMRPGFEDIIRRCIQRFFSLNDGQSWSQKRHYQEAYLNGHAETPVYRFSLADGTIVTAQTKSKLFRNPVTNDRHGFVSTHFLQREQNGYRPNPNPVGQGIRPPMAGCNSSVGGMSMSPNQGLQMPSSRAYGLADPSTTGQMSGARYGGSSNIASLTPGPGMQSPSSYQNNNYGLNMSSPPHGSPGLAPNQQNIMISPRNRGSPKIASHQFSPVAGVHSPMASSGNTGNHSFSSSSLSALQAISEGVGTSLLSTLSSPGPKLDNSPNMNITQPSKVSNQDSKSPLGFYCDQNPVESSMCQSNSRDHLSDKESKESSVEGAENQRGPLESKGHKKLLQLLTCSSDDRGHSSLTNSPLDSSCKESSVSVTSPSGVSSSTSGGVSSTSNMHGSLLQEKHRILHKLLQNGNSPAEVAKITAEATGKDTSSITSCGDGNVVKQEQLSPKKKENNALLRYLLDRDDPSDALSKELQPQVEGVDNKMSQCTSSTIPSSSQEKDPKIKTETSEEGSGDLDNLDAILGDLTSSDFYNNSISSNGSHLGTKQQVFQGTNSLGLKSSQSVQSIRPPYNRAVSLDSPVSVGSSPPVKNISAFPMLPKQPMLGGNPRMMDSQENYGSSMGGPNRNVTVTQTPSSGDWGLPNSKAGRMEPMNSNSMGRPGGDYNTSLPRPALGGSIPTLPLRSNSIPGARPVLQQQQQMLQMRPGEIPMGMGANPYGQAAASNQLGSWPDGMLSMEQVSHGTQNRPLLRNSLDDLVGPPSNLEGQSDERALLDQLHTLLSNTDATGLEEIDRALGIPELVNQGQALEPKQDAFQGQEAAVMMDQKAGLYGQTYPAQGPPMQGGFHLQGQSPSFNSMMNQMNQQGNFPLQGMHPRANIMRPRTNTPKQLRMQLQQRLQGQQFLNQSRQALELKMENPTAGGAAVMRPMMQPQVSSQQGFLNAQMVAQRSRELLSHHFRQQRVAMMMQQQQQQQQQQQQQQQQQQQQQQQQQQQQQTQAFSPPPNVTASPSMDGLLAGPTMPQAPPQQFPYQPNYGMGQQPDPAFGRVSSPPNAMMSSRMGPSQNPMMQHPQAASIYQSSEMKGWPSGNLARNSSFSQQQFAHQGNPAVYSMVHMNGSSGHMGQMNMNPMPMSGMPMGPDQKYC
Test [8] deals with Peroxisome proliferator-activated receptor gamma/Nuclear receptor coactivator 1 (Homo sapiens, UniProt P37231). In kind it is functional.
In test [9] the test system is Streptococcus sp. 'group A'. As to the kind of experiment: growth inhibition of control SK(-) GAS strain, dose response, counter-screen for streptokinase expression inhibitor project, luminescence, kanamycin, BacTiterGlo, confirmation (AID 1900). In kind it is functional, organism-based.
Test [10] in a line: NIH-3T3 fibroblast cytotoxicity, dose response, cytotoxicity control, cell-based, fluorescence, Alamar Blue, secondary assay (AID 2327).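 Note: NIH-3T3 mouse fibroblasts cultured with fluconazole at 8 µg/mL.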 In kind it is functional. On the technique in general: Alamar Blue is a resazurin reagent that responds to reducing activity.
Test [11] concerns the target T3, Short transient receptor potential channel 4 (Mus musculus, UniProt Q9QUQ5).
T3 sequence (Q9QUQ5 whole entry): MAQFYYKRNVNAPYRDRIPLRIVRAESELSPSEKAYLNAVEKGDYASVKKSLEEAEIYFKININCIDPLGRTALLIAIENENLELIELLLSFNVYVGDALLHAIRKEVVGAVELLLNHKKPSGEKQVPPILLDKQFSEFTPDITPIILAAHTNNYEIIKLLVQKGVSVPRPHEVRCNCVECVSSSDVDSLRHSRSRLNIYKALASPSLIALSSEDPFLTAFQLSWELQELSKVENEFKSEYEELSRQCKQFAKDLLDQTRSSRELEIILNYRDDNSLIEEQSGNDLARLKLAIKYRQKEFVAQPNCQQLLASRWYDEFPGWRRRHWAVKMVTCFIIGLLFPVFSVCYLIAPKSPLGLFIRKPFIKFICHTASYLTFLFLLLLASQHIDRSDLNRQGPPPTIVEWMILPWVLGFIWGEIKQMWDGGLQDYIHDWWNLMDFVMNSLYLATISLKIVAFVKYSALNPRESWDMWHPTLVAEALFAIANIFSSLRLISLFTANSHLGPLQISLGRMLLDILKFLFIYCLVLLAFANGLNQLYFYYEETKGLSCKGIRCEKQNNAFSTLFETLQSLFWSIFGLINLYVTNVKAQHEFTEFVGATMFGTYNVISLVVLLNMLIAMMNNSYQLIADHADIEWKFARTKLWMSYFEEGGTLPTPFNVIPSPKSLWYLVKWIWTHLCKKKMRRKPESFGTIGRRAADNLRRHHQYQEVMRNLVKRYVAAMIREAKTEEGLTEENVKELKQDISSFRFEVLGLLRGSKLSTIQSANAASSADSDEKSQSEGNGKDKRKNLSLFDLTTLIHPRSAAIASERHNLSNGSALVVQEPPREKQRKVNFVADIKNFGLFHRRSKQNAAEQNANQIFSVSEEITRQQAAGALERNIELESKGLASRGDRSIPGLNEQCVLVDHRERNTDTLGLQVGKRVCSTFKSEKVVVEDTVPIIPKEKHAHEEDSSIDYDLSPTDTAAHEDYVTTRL
The test can be described thus: mouse TRPC4 channel activators, dose response, cell-based, HEK293 TRPC4/mu-opioid, Fluo-4 calcium (AID 434937). Type of test: functional.

Test [12] is described as follows: C. albicans growth with fluconazole, confirmation, fluorescence, retest (AID 2467). In kind it is functional, cell-based.
Another test has as its target T4, Streptokinase A (Streptococcus pyogenes serotype M1, UniProt P10520).
T4 sequence (P10520 whole entry): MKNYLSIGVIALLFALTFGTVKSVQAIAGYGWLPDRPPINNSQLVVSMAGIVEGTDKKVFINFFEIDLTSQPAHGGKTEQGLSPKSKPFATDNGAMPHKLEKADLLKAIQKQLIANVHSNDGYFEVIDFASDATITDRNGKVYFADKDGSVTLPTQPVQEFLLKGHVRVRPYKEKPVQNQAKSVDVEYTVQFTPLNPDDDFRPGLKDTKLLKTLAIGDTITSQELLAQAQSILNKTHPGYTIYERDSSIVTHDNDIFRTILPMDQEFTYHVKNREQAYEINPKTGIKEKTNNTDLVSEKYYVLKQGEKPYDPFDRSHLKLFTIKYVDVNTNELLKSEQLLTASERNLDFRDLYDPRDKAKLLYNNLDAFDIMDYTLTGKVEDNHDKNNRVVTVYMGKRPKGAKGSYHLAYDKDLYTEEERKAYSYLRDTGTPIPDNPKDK
As to the kind of experiment: S. pyogenes streptokinase expression inhibitors, potency, dose response, plasminogen activation absorbance, OD405 (AID 1914).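 Note: secreted streptokinase activity via plasminogen activation per viability signal from cell pellet.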 In kind it is functional, Streptococcus pyogenes M1 GAS.

Test [13] is described as follows: enhancers of respiration in Yfh1-depleted yeast, dose response, Friedreich's ataxia, plus single-dose screen (AID 1465).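 Note: yeast depleted of Yfh1p frataxin homolog grown on glycerol needing respiration; WST-1 tetrazolium dye reduction as measure of cellular dehydrogenase metabolic activity.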 In kind it is functional.
The next test concerns Streptococcus. As to the kind of experiment: Group A Streptococcus viability loss, dose response, counter-screen for streptokinase expression inhibitor project, luminescence, BacTiterGlo (AID 1915).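 Note: potency for reduction of bacterial viability or growth.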 Type of test: functional, organism-based. (In general: Counterscreens check selectivity or assay interference.)
A further test has as its target T5, Aminopeptidase N (Plasmodium falciparum FcB1/Columbia, UniProt O96935).
T5 sequence (O96935 whole entry): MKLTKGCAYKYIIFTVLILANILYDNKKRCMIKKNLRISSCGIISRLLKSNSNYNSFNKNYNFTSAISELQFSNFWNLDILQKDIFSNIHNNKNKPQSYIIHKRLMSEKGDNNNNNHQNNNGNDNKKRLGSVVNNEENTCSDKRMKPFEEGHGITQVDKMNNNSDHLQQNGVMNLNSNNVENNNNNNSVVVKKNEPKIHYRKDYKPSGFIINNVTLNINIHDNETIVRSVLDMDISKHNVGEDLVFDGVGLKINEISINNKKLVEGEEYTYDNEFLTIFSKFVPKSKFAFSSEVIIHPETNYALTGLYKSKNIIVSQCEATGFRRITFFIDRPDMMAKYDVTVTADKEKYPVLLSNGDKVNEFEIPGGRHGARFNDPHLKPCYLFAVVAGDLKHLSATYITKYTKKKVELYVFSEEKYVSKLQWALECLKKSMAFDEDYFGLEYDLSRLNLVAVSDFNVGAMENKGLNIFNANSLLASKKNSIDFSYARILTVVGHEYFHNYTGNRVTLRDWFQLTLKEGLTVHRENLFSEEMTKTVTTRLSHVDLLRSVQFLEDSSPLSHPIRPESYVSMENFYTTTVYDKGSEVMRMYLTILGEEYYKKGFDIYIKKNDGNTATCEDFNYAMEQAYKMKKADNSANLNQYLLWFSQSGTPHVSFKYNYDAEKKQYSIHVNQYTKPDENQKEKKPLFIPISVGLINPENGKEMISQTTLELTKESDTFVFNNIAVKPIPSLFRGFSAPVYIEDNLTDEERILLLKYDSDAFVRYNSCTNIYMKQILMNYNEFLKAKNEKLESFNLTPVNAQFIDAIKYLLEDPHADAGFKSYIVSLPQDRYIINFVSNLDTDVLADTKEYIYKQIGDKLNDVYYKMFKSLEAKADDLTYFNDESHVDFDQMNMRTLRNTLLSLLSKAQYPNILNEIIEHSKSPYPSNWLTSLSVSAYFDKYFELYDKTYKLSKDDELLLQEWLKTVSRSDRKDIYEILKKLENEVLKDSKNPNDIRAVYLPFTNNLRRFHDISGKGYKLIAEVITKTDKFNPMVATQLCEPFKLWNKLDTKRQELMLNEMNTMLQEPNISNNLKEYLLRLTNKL
The test can be described thus: P. falciparum M1AAP inhibitors, biochemical, fluorogenic H-Leu-NHMec substrate, 1536-well (AID 1445). Set-up: species or system Plasmodium falciparum 3D7, 3D7.

In a further test the target is Large T antigen (Simian virus 40, UniProt P03070). Type of test: functional, Betapolyomavirus macacae.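 Note: Confirmatory-stage PubChem screen for compounds that inhibit SV40 T antigen.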
Sequence of Large T antigen (P03070 whole entry): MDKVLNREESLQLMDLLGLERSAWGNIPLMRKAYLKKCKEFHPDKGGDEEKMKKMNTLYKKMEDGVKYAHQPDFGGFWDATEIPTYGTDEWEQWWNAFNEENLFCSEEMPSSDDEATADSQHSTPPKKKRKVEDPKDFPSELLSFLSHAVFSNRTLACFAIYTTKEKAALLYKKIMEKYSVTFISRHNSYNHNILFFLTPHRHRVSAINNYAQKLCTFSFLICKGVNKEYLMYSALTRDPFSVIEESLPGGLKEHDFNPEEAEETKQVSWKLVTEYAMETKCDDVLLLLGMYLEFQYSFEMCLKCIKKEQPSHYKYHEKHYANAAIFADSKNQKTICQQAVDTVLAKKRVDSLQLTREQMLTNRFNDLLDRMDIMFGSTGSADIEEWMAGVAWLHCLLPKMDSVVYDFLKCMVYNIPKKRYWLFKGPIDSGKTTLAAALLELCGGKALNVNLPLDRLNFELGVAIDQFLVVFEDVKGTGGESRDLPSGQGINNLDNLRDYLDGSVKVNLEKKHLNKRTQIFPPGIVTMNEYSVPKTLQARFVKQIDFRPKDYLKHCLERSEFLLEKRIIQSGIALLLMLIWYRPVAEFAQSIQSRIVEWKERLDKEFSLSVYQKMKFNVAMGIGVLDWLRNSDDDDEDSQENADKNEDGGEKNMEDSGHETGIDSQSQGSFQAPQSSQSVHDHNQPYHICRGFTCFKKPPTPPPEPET
A further test concerns the target T6, Cytochrome P450 1A2 (Homo sapiens, UniProt P05177).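 Note: PubChem cytochrome P450 panel assay, CYP1A2 panel member.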
T6 sequence (P05177 whole entry): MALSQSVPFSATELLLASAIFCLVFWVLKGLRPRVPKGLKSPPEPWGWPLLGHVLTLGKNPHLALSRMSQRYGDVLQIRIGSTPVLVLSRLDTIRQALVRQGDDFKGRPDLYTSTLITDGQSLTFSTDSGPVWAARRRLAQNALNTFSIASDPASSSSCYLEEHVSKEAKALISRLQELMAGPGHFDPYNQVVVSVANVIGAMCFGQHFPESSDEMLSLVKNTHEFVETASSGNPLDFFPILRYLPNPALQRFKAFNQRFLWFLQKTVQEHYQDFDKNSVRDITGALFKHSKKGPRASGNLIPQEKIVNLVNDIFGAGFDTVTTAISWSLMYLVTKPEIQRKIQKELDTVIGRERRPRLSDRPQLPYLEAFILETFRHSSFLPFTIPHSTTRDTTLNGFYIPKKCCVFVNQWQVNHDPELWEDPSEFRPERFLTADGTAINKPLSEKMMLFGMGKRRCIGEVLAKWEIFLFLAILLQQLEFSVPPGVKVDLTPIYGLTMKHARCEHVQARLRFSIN

Test [14] can be described thus: inhibitors of intracellular T. cruzi replication, confirmation, NIH3T3 host cells, beta-gal luminescence (AID 2044).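 Note: intracellular parasites grown in NIH/3T3 mouse fibroblasts as host cells; luminescent beta-galactosidase reporter signal from transgenic T. cruzi replicating inside host cells; inhibitors lower the luminescence signal.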 Type of test: functional, cell-based.
Test [15] is described as follows: cytotoxicity toward NIH3T3 fibroblasts, dose response, counter-screen, cell-based, ATP luminescence, mouse fibroblasts (AID 2010).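 Note: cells exposed to compound for about 90 hours before reading.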 Type of test: functional.
Test [16] has as its target T2, Cytochrome P450 3A4. As to conditions: Potency.

Molecules are shown by their SMILES. Active and inactive are the calls of the source. Bounds are passed on as bounds.

T1 sequence (P11712 whole entry): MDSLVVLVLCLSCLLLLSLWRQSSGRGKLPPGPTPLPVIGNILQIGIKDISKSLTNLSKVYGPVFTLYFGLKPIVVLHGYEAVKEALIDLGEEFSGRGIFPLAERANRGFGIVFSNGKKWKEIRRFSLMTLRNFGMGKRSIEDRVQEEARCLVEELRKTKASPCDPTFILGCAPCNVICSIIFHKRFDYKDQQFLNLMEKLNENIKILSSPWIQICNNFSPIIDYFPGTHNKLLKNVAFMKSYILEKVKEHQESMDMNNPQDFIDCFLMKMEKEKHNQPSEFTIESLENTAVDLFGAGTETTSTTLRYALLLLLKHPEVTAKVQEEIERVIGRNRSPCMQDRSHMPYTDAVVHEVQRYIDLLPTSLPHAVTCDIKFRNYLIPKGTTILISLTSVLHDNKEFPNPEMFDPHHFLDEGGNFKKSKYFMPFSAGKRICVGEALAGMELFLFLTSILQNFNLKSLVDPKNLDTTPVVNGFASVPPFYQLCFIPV
Sequence of Cytochrome P450 2D6 (P10635 whole entry): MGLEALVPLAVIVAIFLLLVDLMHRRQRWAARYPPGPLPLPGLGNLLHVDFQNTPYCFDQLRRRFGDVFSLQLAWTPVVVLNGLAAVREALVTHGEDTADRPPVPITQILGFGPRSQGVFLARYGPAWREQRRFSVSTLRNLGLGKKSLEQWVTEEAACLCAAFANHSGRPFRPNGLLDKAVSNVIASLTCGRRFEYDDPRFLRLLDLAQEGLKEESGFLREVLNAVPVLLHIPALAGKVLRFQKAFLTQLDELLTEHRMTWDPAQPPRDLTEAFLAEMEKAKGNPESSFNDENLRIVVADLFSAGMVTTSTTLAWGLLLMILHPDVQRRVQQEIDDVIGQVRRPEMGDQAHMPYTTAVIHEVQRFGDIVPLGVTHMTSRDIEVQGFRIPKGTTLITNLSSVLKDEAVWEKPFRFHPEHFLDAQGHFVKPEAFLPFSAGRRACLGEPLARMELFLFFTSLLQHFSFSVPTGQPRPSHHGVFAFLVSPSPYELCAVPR
T2 sequence (P08684 whole entry): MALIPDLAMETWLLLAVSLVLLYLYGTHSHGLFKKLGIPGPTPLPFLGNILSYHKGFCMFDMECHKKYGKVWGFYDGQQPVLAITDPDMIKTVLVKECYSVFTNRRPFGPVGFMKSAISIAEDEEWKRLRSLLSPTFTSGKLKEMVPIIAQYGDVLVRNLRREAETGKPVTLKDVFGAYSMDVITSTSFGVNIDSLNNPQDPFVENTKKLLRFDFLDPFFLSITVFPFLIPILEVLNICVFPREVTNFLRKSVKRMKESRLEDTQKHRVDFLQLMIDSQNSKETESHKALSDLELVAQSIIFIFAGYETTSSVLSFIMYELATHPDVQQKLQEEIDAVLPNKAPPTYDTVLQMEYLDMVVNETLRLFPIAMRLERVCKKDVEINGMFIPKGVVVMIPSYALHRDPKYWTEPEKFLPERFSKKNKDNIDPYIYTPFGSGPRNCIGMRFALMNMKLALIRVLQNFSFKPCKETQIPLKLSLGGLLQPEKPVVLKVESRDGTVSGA

`CC[C@H](C)N(C)C(=O)c1cc2ccccc2c(-c2ccccc2Cl)n1`: the AC50 at Cytochrome P450 2C9 [1] was 31.6 µM (inconclusive); on Cytochrome P450 2C9 [2], 15.8 µM (inconclusive); at Cytochrome P450 3A4 [3], 20 µM (inconclusive).

On to `COc1ccc(/C=C/N(CCc2ccc(OC)c(OC)c2)C(=O)C(F)(F)F)cc1`, for which the AC50 is 7.94 µM (inconclusive) on Cytochrome P450 2D6 and 3.16 µM (inconclusive) at Cytochrome P450 2C9 [2].

As usually defined, the IC50 is the point on the concentration scale where inhibition reaches its midpoint. The term CC50 denotes the concentration that lowers cell viability or growth by half. Turning to `Cc1ccc2c(C)c(C(=O)N3CCN(c4ccncc4)CC3)oc2c1C`, the IC50 in the test “cells” is 23.9 µM (active). In test [4], the CC50 was 46.9 µM (active).

A word on the EC50: it is the concentration that produces a half-maximal response. As to `COc1cc2c(cc1NC(=O)CSc1ccc(C)cc1)oc1ccccc12`, the CC50 in test [4] was 28.4 µM (active). Also, in [5], the EC50 is 1.15 µM (active).

Take `c1ccc(-c2oc3ncnc(NCCCN4CCOCC4)c3c2-c2ccccc2)cc1`: the EC50 in test [6], in test [7] and in test [8] was > 79.4 µM (not active) in each case.

With `C=CCC1C=CC(Oc2ccc(OC)cc2)C(COC(=O)c2ccc(Br)cc2)O1` (centres undefined), the AC50 at Cytochrome P450 2D6 was 6.31 µM (inconclusive); at Cytochrome P450 2C9 [2], 3.98 µM (inconclusive).

As to `CCCCC(=O)NNC(=S)NC(=O)C(c1ccccc1)c1ccccc1`, the 50% effective concentration (EC50) is 0.788 µM (active) in test [9]; 19.6 µM (inconclusive) in test [10]; 2.66 µM (active) in test [11]; 2.15 µM (active) in test [12]; > 150 µM (not active) on Streptokinase A; > 100 µM (active) in [13]. In addition, the concentration giving a half-maximal response (EC50) in the test on Streptococcus was 25.1 µM (active).

As for `CCOC(=O)c1c(N2C(=O)Nc3cc(Cl)c(Cl)cc3N2O)sc2c1CCCCC2`, the results for the IC50 at Aminopeptidase N and on Large T antigen were 81.7 µM (active) and > 100 µM (active), respectively. In addition, the AC50 at Cytochrome P450 1A2 was 39.8 µM (inconclusive); at Cytochrome P450 3A4 [3], 10 µM (inconclusive).

`COc1ccc(N2C(=O)/C(=C\NNS(=O)(=O)c3cccc([N+](=O)[O-])c3)c3ccccc3C2=O)cc1OC`: the concentration for a half-maximal effect (EC50) in test [6] was > 79.4 µM (not active); in [14] it was 18.2 µM (active); in [7], > 79.4 µM (not active); in test [15] it was > 60 µM (not active); in [8], > 79.4 µM (not active).

`COCc1nc(-c2cc(OC)c(OC)c(OC)c2)no1`: the EC50 in test [5] was > 32 µM (inactive).

`Cc1cc(NC(=O)CSc2nc3ccsc3c(=O)n2NC(=O)c2ccccc2)no1`: the IC50 at Aminopeptidase N was 23.7 µM (active).

`COc1ccc(C(CN=C(S)NCc2ccccc2)N2CCCC2)cc1` (centres undefined): the IC50 in “cells” was 24.2 µM (active).

In the case of `CN(C)C(=O)c1ccc(-c2nc(N(C)C)c3ccccc3n2)cc1`, the values for the AC50 at Cytochrome P450 2D6 and at Cytochrome P450 3A4 [16] were 12.6 µM (inconclusive) and 1.58 µM (inconclusive), respectively.

Regarding `COc1ccc(C2=NN(c3nc(-c4ccc(CNC(C)=O)cc4)cs3)C(c3ccco3)C2)cc1` (centres undefined), the EC50 in test [5] was 1.04 µM (active).

`C/C=C/c1ccc(OCCOc2cc(C=O)ccc2OC)c(OC)c1`: the IC50 on Aminopeptidase N was 88.9 µM (active).

Take `Cn1c(SCc2cccc3ccccc23)nnc1-c1ccco1`: in “cells”, the IC50 is 46.5 µM (active). Besides, in test [4], the CC50 is > 50 µM (active).
